# From ChEMBL document CHEMBL1201862, “PubChem BioAssay data set” (2004)
# Counter-ions that a name gives are not always drawn. Activity calls are given as the source filed them.
# Key:
# [1] = M. tuberculosis growth inhibition, HTS (AID 449762); assay type: functional
# [2] = NIH-3T3 fibroblast cytotoxicity, dose response, cytotoxicity control, cell-based, fluorescence, Alamar Blue, secondary assay (AID 2327); assay type: functional;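 also: NIH-3T3 mouse fibroblasts cultured with fluconazole at 8 µg/mL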
# [3] = inhibitors of firefly luciferase expression or activity, dose response, H4 neuroglioma cells, luminescence (AID 1990); assay type: functional, cell-based
# [4] = Luminescence Cell-Based Dose Response HTS to Identify Inhibitors of 5'UTR Stem-Loop Driven Prion Protein mRNA Translation in H4 Neuroglioblastoma Cells. [Related pubchem assays: 1827 (Project Summary), 1813 (Primary HTS)]; assay type: functional
# [5] = inhibitors of SNCA 5'UTR-driven reporter translation, confirmation, H4 neuroglioma cells, luminescence (AID 1988); assay type: functional, cell-based
# [6] = C. albicans growth with fluconazole, confirmation, fluorescence, retest (AID 2467); assay type: functional, cell-based
# [7] = inhibitors of intracellular T. cruzi replication, confirmation, NIH3T3 host cells, beta-gal luminescence (AID 2044); assay type: functional, cell-based;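 also: intracellular parasites grown in NIH/3T3 mouse fibroblasts as host cells; luminescent beta-galactosidase reporter signal from transgenic T. cruzi replicating inside host cells; inhibitors lower the luminescence signal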
# [8] = cytotoxicity toward NIH3T3 fibroblasts, dose response, counter-screen, cell-based, ATP luminescence, mouse fibroblasts (AID 2010); assay type: functional;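 also: cells exposed to compound for about 90 hours before reading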
# [9] = cells
# [10] = inhibitors of Vif binding to APOBEC3G peptide, primary screen, biochemical, TR-FRET, GST-Vif 1-94, biotin-A3G peptide, dose response retest (AID 1117319); assay type: functional;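 also: TR-FRET signal of purified GST-Vif binding a biotinylated A3G peptide; inhibitors lower the FRET signal by blocking Vif and A3G binding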
# [11] = biological target: T1, Mannose-6-phosphate isomerase (Homo sapiens, UniProt P34949); test: inhibitors of human PMI, primary screen, biochemical, fluorescence intensity, coupled assay (AID 1209)
# T1 sequence (P34949 whole entry): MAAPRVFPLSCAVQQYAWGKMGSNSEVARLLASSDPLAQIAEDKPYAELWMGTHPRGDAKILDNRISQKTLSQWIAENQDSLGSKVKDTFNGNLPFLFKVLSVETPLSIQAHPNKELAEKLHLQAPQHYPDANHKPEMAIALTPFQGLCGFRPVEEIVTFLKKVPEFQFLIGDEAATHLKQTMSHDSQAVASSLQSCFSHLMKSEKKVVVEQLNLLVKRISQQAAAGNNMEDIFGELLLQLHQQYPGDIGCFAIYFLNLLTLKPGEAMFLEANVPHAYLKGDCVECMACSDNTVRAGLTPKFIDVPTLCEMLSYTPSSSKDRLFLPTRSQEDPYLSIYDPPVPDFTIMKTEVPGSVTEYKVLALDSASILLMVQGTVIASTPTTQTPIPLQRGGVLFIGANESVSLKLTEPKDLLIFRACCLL
# [12] = biological target: Beta-galactosidase (Escherichia coli, UniProt Q8VNN2); test: PubChem AID 485352; assay type: functional
# Chain of Beta-galactosidase (Q8VNN2 whole entry): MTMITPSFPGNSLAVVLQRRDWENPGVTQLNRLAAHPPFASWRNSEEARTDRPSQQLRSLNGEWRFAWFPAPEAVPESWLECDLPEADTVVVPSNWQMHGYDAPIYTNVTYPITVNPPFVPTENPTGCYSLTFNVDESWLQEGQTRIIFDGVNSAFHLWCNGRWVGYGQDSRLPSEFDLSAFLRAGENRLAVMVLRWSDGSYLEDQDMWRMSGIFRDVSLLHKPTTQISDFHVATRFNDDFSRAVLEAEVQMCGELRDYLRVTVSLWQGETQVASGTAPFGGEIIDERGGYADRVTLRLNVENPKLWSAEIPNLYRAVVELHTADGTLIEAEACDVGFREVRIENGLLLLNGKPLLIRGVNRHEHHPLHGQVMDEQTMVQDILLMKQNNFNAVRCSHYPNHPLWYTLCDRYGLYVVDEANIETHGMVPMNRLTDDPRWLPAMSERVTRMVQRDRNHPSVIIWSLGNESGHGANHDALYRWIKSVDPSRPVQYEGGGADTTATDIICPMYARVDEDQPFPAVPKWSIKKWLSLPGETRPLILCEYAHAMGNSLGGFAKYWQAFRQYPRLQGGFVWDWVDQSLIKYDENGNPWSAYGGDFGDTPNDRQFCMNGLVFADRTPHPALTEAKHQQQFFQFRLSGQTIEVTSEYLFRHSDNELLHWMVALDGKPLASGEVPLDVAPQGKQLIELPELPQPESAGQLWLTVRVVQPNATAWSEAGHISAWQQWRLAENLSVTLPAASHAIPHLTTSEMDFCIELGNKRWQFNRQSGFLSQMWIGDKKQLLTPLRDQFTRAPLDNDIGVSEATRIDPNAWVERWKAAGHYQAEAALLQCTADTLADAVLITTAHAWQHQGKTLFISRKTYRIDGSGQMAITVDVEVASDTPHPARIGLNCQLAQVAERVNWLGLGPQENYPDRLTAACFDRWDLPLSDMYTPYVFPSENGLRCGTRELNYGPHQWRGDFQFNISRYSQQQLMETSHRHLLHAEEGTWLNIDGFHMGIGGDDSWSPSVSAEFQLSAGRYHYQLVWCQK
# [13] = cytotoxicity in HPDE-C7 cells, cell-based, fluorescence, HTS (AID 430); assay type: functional; settings: Homo sapiens
# [14] = cytotoxicity in KRAS-transformed pancreatic duct cells, primary screen, cell-based, fluorescence, HTS (AID 431); assay type: functional; settings: Homo sapiens;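 also: cell line used: HPDE-C7K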
# [15] = biological target: T2, Type-1 angiotensin II receptor (Homo sapiens, UniProt P30556); test: AT1 receptor antagonists, dose response, selectivity assay for APJ receptor antagonist project, cell-based, uHTS hits (AID 463214); assay type: functional;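 also: antagonist potency against angiotensin II stimulated AT1 response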
# T2 sequence (P30556 whole entry): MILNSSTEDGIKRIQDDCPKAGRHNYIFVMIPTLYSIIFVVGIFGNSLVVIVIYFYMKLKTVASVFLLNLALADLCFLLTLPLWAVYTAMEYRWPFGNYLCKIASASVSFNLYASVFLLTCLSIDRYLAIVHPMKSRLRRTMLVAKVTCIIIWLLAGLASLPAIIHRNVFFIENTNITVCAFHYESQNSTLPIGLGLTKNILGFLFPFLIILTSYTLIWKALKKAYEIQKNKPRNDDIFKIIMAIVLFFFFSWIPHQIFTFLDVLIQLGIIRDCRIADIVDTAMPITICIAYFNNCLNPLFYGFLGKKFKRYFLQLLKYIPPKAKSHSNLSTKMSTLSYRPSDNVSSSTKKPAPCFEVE
# [16] = cytotoxicity in HEK-293T cells, dose response, cytotoxicity control for TCR NF-kB inhibitor project, luminescence, T-cell screen hits (AID 489026); assay type: functional, cell-based;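 also: cells exposed to compound about 14 hours before the viability readout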
# [17] = Luminescent dose response cell-based high throughput screening assay for inhibitors of the Janus kinase 2 mutant JAK2V617F. [Related pubchem assays: 1446 (Primary screen.), 1521 (Confirmation assay.), 1486 (Counter screen.)]; assay type: functional
# [18] = biological target: T3, Rac GTPase-activating protein 1 (Homo sapiens, UniProt Q9H0H5); test: MgcRacGAP GTPase-activating activity inhibitors, confirmation, biochemical, ADP Hunter fluorescence, primary and confirmatory (AID 624330); assay type: functional
# T3 sequence (Q9H0H5 whole entry): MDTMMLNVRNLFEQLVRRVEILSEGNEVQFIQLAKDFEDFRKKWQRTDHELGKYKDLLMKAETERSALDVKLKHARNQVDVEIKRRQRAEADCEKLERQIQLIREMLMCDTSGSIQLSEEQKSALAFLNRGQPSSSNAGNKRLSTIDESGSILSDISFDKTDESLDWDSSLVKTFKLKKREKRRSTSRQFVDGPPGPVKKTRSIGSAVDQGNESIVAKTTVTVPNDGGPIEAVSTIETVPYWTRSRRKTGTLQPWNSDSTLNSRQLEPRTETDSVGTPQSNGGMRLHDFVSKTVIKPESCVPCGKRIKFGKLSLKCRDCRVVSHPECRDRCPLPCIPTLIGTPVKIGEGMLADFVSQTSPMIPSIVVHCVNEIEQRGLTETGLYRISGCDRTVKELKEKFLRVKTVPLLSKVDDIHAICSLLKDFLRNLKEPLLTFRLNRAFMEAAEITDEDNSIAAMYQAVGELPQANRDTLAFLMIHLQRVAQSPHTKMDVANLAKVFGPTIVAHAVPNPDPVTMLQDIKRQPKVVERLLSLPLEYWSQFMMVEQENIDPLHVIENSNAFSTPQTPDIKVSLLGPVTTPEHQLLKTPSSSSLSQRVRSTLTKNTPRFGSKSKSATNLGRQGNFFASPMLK
# [19] = biological target: Ephrin type-A receptor 4 (Mus musculus, UniProt Q03137); test: inhibitors of EphA4 binding to KYL peptide, primary screen, biochemical, colorimetric, mouse EphA4 (AID 689); assay type: functional
# Chain of Ephrin type-A receptor 4 (Q03137 whole entry): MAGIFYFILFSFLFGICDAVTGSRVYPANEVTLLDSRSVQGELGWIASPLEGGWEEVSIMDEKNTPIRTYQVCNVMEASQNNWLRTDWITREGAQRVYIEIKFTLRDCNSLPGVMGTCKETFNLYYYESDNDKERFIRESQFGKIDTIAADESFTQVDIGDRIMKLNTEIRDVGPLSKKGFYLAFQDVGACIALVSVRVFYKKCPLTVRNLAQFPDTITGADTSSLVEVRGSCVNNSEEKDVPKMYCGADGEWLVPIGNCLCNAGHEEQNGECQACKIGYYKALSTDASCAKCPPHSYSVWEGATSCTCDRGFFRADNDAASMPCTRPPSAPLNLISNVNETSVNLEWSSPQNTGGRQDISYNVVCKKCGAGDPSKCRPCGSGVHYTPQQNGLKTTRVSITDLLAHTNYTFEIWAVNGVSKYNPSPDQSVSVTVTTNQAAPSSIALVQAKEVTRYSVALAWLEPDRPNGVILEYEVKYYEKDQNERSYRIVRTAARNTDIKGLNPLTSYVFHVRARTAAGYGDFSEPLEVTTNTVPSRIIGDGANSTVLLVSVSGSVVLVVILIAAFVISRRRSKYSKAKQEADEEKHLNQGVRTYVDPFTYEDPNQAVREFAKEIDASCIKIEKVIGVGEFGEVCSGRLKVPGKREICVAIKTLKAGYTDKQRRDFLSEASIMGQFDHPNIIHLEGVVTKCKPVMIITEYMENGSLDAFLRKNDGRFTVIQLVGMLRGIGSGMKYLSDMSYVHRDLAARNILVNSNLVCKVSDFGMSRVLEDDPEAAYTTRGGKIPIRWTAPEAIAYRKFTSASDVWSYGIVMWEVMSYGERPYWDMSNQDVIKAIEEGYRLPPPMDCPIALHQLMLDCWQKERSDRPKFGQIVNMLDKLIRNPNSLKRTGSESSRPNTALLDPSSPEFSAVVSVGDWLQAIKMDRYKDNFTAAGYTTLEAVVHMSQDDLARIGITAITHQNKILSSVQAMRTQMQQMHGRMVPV
# [20] = biological target: Cytochrome P450 2C19 (Homo sapiens, UniProt P33261); test: Cytochrome panel assay with activity outcomes. Panel member name: p450-cyp2c19 Compounds with AC50 equal or less than 10 uM are considered active; assay type: functional; settings: read-out: AC50
# Chain of Cytochrome P450 2C19 (P33261 whole entry): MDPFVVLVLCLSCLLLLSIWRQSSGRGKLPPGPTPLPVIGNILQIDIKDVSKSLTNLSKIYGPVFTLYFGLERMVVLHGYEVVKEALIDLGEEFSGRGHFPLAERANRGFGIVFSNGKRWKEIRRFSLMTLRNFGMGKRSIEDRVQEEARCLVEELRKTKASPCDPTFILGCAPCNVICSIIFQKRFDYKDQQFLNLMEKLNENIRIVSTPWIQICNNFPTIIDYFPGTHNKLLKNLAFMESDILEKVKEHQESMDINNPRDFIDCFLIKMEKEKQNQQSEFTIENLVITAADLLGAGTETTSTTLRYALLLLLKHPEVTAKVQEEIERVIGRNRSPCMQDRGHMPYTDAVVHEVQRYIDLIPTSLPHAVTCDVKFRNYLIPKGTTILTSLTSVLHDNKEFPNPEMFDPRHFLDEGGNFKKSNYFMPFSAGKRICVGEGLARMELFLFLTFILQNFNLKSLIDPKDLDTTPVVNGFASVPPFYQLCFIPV
# [21] = biological target: Cytochrome P450 3A4 (Homo sapiens, UniProt P08684);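 also: CYP3A4 tested as one member of a cytochrome P450 panel screen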
# Chain of Cytochrome P450 3A4 (P08684 whole entry): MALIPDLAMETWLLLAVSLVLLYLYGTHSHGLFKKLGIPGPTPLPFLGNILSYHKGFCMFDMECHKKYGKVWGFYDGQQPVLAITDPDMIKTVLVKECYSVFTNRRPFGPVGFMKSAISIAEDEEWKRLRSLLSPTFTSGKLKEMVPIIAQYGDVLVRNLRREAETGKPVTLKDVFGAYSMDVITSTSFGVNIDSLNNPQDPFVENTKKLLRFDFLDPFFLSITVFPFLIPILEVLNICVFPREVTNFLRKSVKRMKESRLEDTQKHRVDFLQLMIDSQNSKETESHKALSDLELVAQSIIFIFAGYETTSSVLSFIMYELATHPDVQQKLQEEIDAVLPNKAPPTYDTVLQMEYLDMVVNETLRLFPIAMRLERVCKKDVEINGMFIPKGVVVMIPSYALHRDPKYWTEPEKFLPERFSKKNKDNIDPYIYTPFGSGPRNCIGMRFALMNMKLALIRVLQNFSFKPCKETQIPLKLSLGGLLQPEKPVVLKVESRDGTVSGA
# [22] = biological target: Cytochrome P450 2C9 (Homo sapiens, UniProt P11712)
# Chain of Cytochrome P450 2C9 (P11712 whole entry): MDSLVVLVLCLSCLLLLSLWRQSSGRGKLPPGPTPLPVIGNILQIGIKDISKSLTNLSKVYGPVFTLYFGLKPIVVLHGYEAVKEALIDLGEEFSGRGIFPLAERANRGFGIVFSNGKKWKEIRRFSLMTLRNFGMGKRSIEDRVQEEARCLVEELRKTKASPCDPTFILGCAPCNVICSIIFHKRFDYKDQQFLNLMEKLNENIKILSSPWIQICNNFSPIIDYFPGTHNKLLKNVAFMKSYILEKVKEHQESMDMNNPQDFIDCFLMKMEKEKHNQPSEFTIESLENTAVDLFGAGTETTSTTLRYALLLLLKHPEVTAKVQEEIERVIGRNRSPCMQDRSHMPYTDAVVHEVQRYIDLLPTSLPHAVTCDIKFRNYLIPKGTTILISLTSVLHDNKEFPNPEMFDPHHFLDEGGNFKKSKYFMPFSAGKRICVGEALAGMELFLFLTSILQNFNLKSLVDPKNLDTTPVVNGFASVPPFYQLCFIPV
# [23] = biological target: T4, Ubiquitin-conjugating enzyme E2 N (Homo sapiens, UniProt P61088); assay type: functional;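 also: Dose-response confirmation in a TR-FRET assay detecting UBC13-driven polyubiquitin chain formation, inhibition measured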
# T4 sequence (P61088 whole entry): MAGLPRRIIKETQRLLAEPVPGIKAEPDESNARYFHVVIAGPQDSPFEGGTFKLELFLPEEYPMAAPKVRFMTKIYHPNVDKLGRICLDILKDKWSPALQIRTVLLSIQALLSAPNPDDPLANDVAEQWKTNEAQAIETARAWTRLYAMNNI
smiles,measurement,setting,value
Cn1ccnc1C(O)c1cc(C(C)(C)C)c(O)c(C(C)(C)C)c1 (stereo not drawn),IC50,[1],> 100 µM (active)
CCOc1ccc(-c2cc(C)[n+](CCN(CC)CC)c(-c3ccc(OCC)cc3)c2)cc1.[O-][Cl+3]([O-])([O-])[O-],EC50,[2],98.5 µM (active)
same,EC50,[3],10.2 µM (active)
same,EC50,[4],14.6 µM (active)
same,EC50,[5],8.8 µM (active)
same,EC50,[6],258 nM (active)
same,EC50,[7],< 100 nM (active)
same,EC50,[8],> 60 µM (not active)
same,EC50,[9],89 nM (active)
CC(=O)c1ccc(S(=O)(=O)Nc2cccc(-c3ccc(N4CCOCC4)nn3)c2)cc1,IC50,[10],> 100 µM (active)
CCOC(=O)c1ccc(N2C(=O)CC(SCC(=O)Nc3ccc(S(N)(=O)=O)cc3)C2=O)cc1 (stereo not drawn),IC50,[11],28.1 µM (active)
COc1ccc(N2CN=C3SCC(=O)N3C2)cc1,IC50,[1],> 100 µM (active)
CCOC(=O)/C=C/S(=O)(=O)c1ccc(NC(C)=O)cc1,EC50,[12],> 40 µM (inactive)
same,EC50,[13],8.93 µM (active)
same,EC50,[14],10.4 µM (active)
same,IC50,[15],9.22 µM (active)
same,IC50,[16],> 80 µM (inactive)
Oc1ccc(Cl)cc1/N=C/c1sc2ccccc2c1Cl,IC50,[17],1.15 µM (active)
same,IC50,[18],20.4 µM (active)
CCOC(=O)C1=C(c2ccccc2)N=c2s/c(=C\c3cc(OC)c(OC)c(OC)c3)c(=O)n2C1c1cccs1 (stereo not drawn),EC50,[7],1290 nM (active)
same,EC50,[8],> 60 µM (not active)
same,IC50,[19],1.49 µM (active)
same,AC50,[20],631 nM (inconclusive)
same,AC50,[21],7.08 µM (inconclusive)
same,AC50,[22],1.26 µM (inconclusive)
CNCCC(Oc1ccc(C(F)(F)F)cc1)c1ccccc1 (stereo not drawn) [FLUOXETINE HYDROCHLORIDE],EC50,[13],> 20 µM (not active)
same,EC50,[14],> 20 µM (not active)
same,IC50,[23],> 20 µM (inactive)
